Source: patent EP4551202B1, “NAPHTHAZARIN DERIVATIVES FOR TREATMENT OF ONYCHOMYCOSIS” (Christian-Albrechts-Universität zu Kiel, priority 2022, dated 2024)
Where two headings read alike, the source gives them in different places. Each block holds one compound with its values, some of them ahead of it.

Assays:
[1] = Comparison test of antimycotic effect upon irradiation; format: cell-based
C. albicans = assay: Anti-mycotic activity assay from nail (infected nail model, cow horn membranes); format: cell-based
[2] = system: Trichophyton rubrum I/95 (patient isolates); assay: as above; conditions: for growth of T. rubrum in cow horn membrane: 15 µL/membrane; for diffusion of the compound into the supporting agar: from cow horn membrane, infected nail model
Protocol: For testing the effect of the pharmaceutical compounds in a nail, compounds were applied as a solution of 5 mg/ml or 10 mg/ml in nitrocellulose-based cosmetic nail lacquer, diluted 1: 1 with ethyl acetate, onto cow horn membranes representing nail.
Trichophyton rubrum I/95 (patient isolates) was cultivated for 1-3 weeks on GPY (0.1 % glucose, 0.05 % peptone, 0.01 yeast extract, 1.5 % agar) at 28°C. For the infected nail model, petri dishes with M186 agar (1% glucose, 0.5% peptone from soybeans, 0.3% yeast extract, 0.3% malt extract, 1.5 % agar, supplemented with 100 U/ml penicillin and […]) where inoculated with the pathogen using sterile cotton swabs. Afterwards autoclaved cow horn membranes (in DPBS-buffer solution, 100 µm thick, 8 mm in diameter) where put onto the agar (5 per petri dish) followed by incubation for 48 h at 29 °C. […] The formulations were applied to 15 µL/membrane to the cow horn membranes using an Eppendorf pipette. After incubation for another 24 h four membranes of each type (control, vehicle, 5 mg/ml or 10 mg/ml deoxyshikonin) were transferred onto fresh petri dishes with the surface to which the formulation was applied now facing the agar. […] Afterwards formulations were applied (15 µL/membrane) onto the untreated side of the membranes (facing upwards), they were allowed to dry and were irradiated again for 5 min (2x). The dishes were incubated for 24 h at 29 °C and irradiated again for 5 min (2x). After 7 days of incubation at 29 °C the dishes were evaluated. Anytime handling the compounds and the agar plates after application of the formulations the ambient light was turned off and a red-light LED was used to protect them from any activating light source.

[3] = Migration into hoof plate from lacquer, Raman spectroscopy of cross-sections; format: in vitro ADME, bovine; conditions: 5 days
Protocol: As a further analysis, a bovine hoof plate, 2 mm thickness, was arranged on water-saturated cotton gauze, and pharmaceutical compound was deposited on the opposite surface of the hoof plate. This arrangement was incubated under static conditions at room temperature for 5 days. The pharmaceutical compound was used at 5 wt.-% in a preliminary formulation of 12.5 wt.-% Eudragit RL PO, 60 wt.-% ethanol, 15 wt.-% ethyl acetate, 5 wt.-% butyl acetate, 2.5 wt.-% triacetin, which formulation should mimic the Loceryl lacquer. For comparison, the topic antimycotics amorolfin in Loceryl lacquer and ciclopirox in Ciclopoli were used in parallel.
After the incubation for 5 d, the lacquer compositions were carefully removed and cross-sections from the hoof plates were made. […] This pattern of measurement points, each at a depth greater by 10 µm, up to a depth of at least 100 µm, was used for Raman spectroscopy for presence of pharmaceutical compound.

[4] = system: Trichophyton rubrum I/95 (patient isolate); assay: Anti-mycotic activity assay in pathogen suspension (optical density at 600 nm); format: cell-based; conditions: light or radiation study, read-out: Tru IC50 with irradiation
Protocol: (§1) For determining the IC50 of the anti-mycotic activity of compounds, the human pathogen Candida albicans, strain DSM 1386, or clinical isolates of Trichophyton rubrum obtained from patient samples were used.
Trichophyton rubrum I/95 (patient isolate) was cultivated for 1 week on GPY (0.1% glucose, 0.05% petone, 0.01 yeast extract, 1.5% agar) at 28°C. A suspension of 5x10^4 spores/ml in M186 (1% glucose, 0.5% peptone from soybeans, 0.3% yeast extract, 0.3% malt extract) was prepared and added to each well of a microplate containing one of the pharmaceutical compounds, which were pipetted in triplicates for a final concentration of […] and 100 µM. The wells were irradiated using the custom-made light source with a peak wavelength of 519 nm. Handling of the test compounds and well plates took place in a darkened room equipped with a red-light LED to protect them from green light. After incubation for 72 h at 28 °C and 120 rpm the optical density at 600 nm was measured using the microplate reader Tecan Infinite M200.

[5] = system: Candida albicans, strain DSM 1386; assay: Anti-mycotic activity assay in pathogen suspension (resazurin fluorescence); format: cell-based
Protocol: as §1
Candida albicans DSM 1386 was cultivated overnight in medium M186/3 (3.3 % glucose, 0.16 % peptone from soybeans, 0.1% yeast extract, 0.1 % malt extract). Test samples were added in triplicates to a 96-well plate for a final assay concentration of 10 µM and 100 µM of pharmaceutical compounds. 200 µl of the yeast was added to each well after diluting the overnight culture to an optical density (600 nm) of 0.03. […] Handling of the test compounds and well plates took place in a darkened room equipped with red-light LEDs to protect them from green light. Microplates were incubated for 5 h at 28 °C on a shaker at 200 rpm. Subsequently, 10 µl resazurin solution (0.3 mg/ml in phosphate buffer) was added to each well and the microplates were incubated again for 30 min before measuring fluorescence (560/590 nm) using a microplate reader (Tecan Infinite M200, Tecan, Männedorf, Switzerland). Nystatin was used as positive control.

[6] = system: Trichophyton rubrum I/95 (patient isolate); assay: Anti-mycotic activity assay in pathogen suspension (optical density at 600 nm); format: cell-based; conditions: light or radiation study; antimycotic activity against Trichophyton rubrum; without irradiation (dark); read-out: Tru IC50 without irradiation
[7] = with irradiation at 519 nm, 5 mg/ml or 10 mg/ml in diluted nitrocellulose-based nail lacquer, evaluated after 7 days
[8] = without irradiation, compound in diluted nitrocellulose-based nail lacquer
[9] = 5 wt.-% in preliminary Eudragit RL PO lacquer formulation, bovine hoof plate 2 mm, room temperature, one topical application
[10] = antimycotic activity against Trichophyton rubrum, with irradiation, peak wavelength 519 nm
[11] = DSM1386, light or radiation study, antimycotic activity against Candida albicans, with irradiation, peak wavelength 519 nm, read-out: Ca IC50 with irradiation
[12] = Candida albicans, DSM1386, light or radiation study, antimycotic activity against Candida albicans, with irradiation, peak wavelength 519 nm, read-out: Ca IC50 with irradiation
[13] = antimycotic activity against Candida albicans, with irradiation, peak wavelength 519 nm, read-out: Ca IC50 with irradiation

Structure (SMILES): O=C1C=C(O)C(=O)c2ccccc21 [2-hydroxy-1,4-naphthochinone]
antimycotic effect upon irradiation [1]: essentially no antimycotic effect

Structure (SMILES): NCC(=O)CCC(=O)O [5-amino laevulinic acid]
growth of C. albicans in cow horn membrane (C. albicans; with irradiation at 519 nm): did not suppress growth
growth of C. albicans in cow horn membrane (C. albicans; without irradiation): did not suppress growth
growth of T. rubrum in cow horn membrane [2, 7]: did not suppress growth
growth of T. rubrum in cow horn membrane [2, 8]: did not suppress growth
depth of migration into the keratin cross-section [3, 9]: 30 µm

IC50 [4, 10]: 87.6 ± 65.4 nM
IC50 [5, 11]: 2340 ± 846 nM
IC50 ([5]; DSM1386, light or radiation study, antimycotic activity against Candida albicans, without irradiation (dark), read-out: Ca IC50 without irradiation): 10900 ± 4080 nM
Structure (SMILES): CC1=CC(=O)c2c(O)ccc(O)c2C1=O [BJ-18]

IC50 [4, 10]: 244 ± 192 nM
IC50 [5, 11]: 7650 ± 4480 nM
Structure (SMILES): CC(C)(C)C1=CC(=O)c2c(O)ccc(O)c2C1=O [BJ-19]

IC50 [4, 10]: 321 ± 212 nM
IC50 [5, 11]: 2750 ± 70 nM
Structure (SMILES): CC1=C(C)C(=O)c2c(O)ccc(O)c2C1=O [BJ-27]

IC50 [4, 10]: 42.7 nM
IC50 [5, 11]: 1040 ± 185 nM
Structure (SMILES): CC(C)C1=CC(=O)c2c(O)ccc(O)c2C1=O [BJ-28]

IC50 [4, 10]: 24.2 ± 20.6 nM
IC50 [5, 11]: 715 ± 209 nM
Structure (SMILES): CCC1=CC(=O)c2c(O)ccc(O)c2C1=O [BJ-34]

IC50 [4, 10]: 13 ± 12.2 nM
IC50 [5, 11]: 599 ± 289 nM
Structure (SMILES): CCCC1=CC(=O)c2c(O)ccc(O)c2C1=O [BJ-35]

IC50 [4, 10]: 1 ± 0.3 nM
IC50 [5, 11]: 556 ± 355 nM
depth of migration into the keratin cross-section ([3]; bovine, 5 wt.-%): more than 70 µm
Structure (SMILES): CCCCC1=CC(=O)c2c(O)ccc(O)c2C1=O [BJ-36]
growth of C. albicans in cow horn membrane (C. albicans; with irradiation at 519 nm): effectively eliminated any growth
growth of C. albicans in cow horn membrane (C. albicans; without irradiation): not effective in suppressing growth
diffusion of the compound into the supporting agar [2]: without diffusion of the compound into the supporting agar
growth of T. rubrum in cow horn membrane [2, 7]: effectively eliminated any growth
growth of T. rubrum in cow horn membrane [2, 8]: not effective in suppressing growth

IC50 [4, 10]: 2.9 nM
Structure (SMILES): O=C1C=C(c2ccccc2)C(=O)c2c(O)ccc(O)c21 [BJ-39]

IC50 [4, 10]: 352 ± 150 nM
IC50 [5, 11]: 570 nM
Structure (SMILES): O=C1C=C(Nc2ccccc2)C(=O)c2c(O)ccc(O)c21 [BJ-49]

IC50 [4, 10]: 3340 nM
IC50 [6]: 8140 nM
IC50 [5, 11]: 1480 nM
Structure (SMILES): CN(C)C1=CC(=O)c2c(O)ccc(O)c2C1=O [BJ-SK-Amin]

Structure (SMILES): CC(C)=CCCC1=CC(=O)c2c(O)ccc(O)c2C1=O [DOS, Deoxyshikonin]
IC50 [4, 10]: 32.2 ± 17.4 nM
IC50 [5, 12]: 213 ± 54.7 nM
IC50 [5, 13]: 213 ± 55 nM
growth of T. rubrum in cow horn membrane [2, 7]: effectively suppressed growth of T. rubrum
growth of T. rubrum in cow horn membrane [2, 8]: reduced compared to both controls but not suppressed
depth of migration into the keratin cross-section [3, 9]: more than 50 µm

Structure (SMILES): O=C1C=CC(=O)c2c(O)ccc(O)c21 [Naphthazarin]
IC50 ([4]; Trichophyton rubrum): 353 ± 237 nM
IC50 ([5]; Candida albicans, DSM1386, light or radiation study, read-out: Ca IC50 with irradiation): 632 ± 175 nM

Structure (SMILES): C[C@@H]1[C@H](O)[C@@H](C)/C=C/C=C/CC/C=C/C=C/C=C/C=C/C(O[C@H]2O[C@H](C)[C@@H](O)[C@H](N)[C@@H]2O)CC2O[C@](O)(CC(O)C(O)CCC(O)CC(O)CC(O)CC(=O)O[C@H]1C)CC(O)C2C(=O)O (stereo partly shown) [Nystatin, reference compound]
IC50 [5, 13]: 1660 ± 886 nM
IC50 ([5]; antimycotic activity against Candida albicans, without irradiation (dark), read-out: Ca IC50 without irradiation): 692 nM
activity under irradiation compared with no irradiation ([5]; under irradiation, believed to be caused by decomposition under irradiation): lower activity under irradiation

Structure (SMILES): CC(C)=CCC(O)C1=CC(=O)c2c(O)ccc(O)c2C1=O (stereo not shown) [Shikonin/ Alkannin]
IC50 [4, 10]: 781 ± 407 nM
IC50 [6]: 10500 ± 6920 nM
IC50 [5, 12]: 1480 nM

Structure (SMILES): CCC(C)(C)c1ccc(CC(C)CN2C[C@@H](C)O[C@@H](C)C2)cc1 (stereo partly shown) [amorolfin]
depth of migration into the keratin cross-section ([3]; commercial lacquers (amorolfin in Loceryl lacquer, ciclopirox in Ciclopoli), bovine hoof plate 2 mm, room temperature): could not be detected inside the keratin cross-section

depth of migration into the keratin cross-section ([3]; bovine): ≤ 40 µm
Structure (SMILES): Cc1cc(C2CCCCC2)n(O)c(=O)c1 [ciclopirox]

depth of migration into the keratin cross-section ([3]; bovine, 5 wt.-%): 50 µm
Structure (SMILES): CN(C)c1ccc2nc3ccc(=[N+](C)C)cc-3sc2c1 [methylene blue, reference compound]
growth of C. albicans in cow horn membrane (C. albicans; with irradiation at 519 nm): did not suppress growth
growth of C. albicans in cow horn membrane (C. albicans; without irradiation): did not suppress growth
diffusion of the compound into the supporting agar [2]: diffusion of methylene blue into the supporting agar
growth of T. rubrum in cow horn membrane [2, 7]: did not suppress growth
growth of T. rubrum in cow horn membrane [2, 8]: did not suppress growth
